What all share (assay): NCI-60 cell line screen, 48 h
Test [1] deals with UO-31 renal.
Test [2] deals with SK-MEL-5 melanoma.
Test [3] relates to SK-MEL-2 melanoma.
The subject of test [4] is MCF7 breast.
Test [5] deals with LOX IMVI melanoma.
The subject of test [6] is OVCAR-5 ovarian.
Test [7] deals with SK-OV-3 ovarian.
The test system of test [8] is A498 renal.
In test [9] the test system is TK-10 renal.
Test [10] relates to PC-3 prostate.

We go through eight compounds from PubChem BioAssay (NCI).

The structures appear in SMILES notation.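 Interpolation was linear, between the two tested concentrations surrounding the appropriate level; five concentrations were tested over 48 hours in 96-well plates. GI50 = concentration required for 50% inhibition of growth. TGI marks complete inhibition of growth.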

With `COc1cccc(-c2nn(C)c3sc(C(=O)NCCN4CCN(c5ccccc5F)CC4)cc23)c1`, the GI50 was 4.56 µM in test [1]; 6.38 µM in test [2]; 33.9 µM in [3]; 6.54 µM in test [4]; 13.4 µM in test [5]; 6.55 µM in test [6]. Besides, the GI50 is over 100 µM in [7], 1.29 µM in test [8], 65.4 µM in test [9] and 11.5 µM in test [10]. For the same compound, the TGI in test [1] was 47.8 µM; in test [2], 26.2 µM; in test [3], over 100 µM; in [4] it was over 100 µM; in test [5], over 100 µM; in [6] it was 96.6 µM. Moreover, the TGI was over 100 µM in [7], 27.3 µM in [8], over 100 µM in test [9] and over 100 µM in test [10].

Turning to `CCCCCCCCCCCC(=O)[O][Sn]([CH2]CCC)([CH2]CCC)[CH2]CCC`, the GI50 in test [1] is 0.0347 µM; in test [2], 0.0302 µM; in [3], 0.0555 µM; in test [4] it was 0.037 µM; in test [5] it was 0.0259 µM; in test [6], 0.0548 µM. Further, the GI50 in test [7] is 0.0617 µM; in test [8], 0.0241 µM; in test [9], 0.0271 µM; in [10] it was 0.049 µM. Also, the TGI in [1] stood at 0.0849 µM; in test [2], 0.0786 µM; in test [3], 0.13 µM; in test [4] it was 0.161 µM; in [5] it was 0.0712 µM; in test [6] it was 0.164 µM. The TGI in test [7] stood at 0.193 µM; in test [8], 0.0883 µM; in [9], 0.0677 µM; in test [10] it was 0.162 µM.

On to `COc1ccc(-c2nn(C(=O)c3cc(OC)c(OC)c(OC)c3)c3cc(N)ccc23)cc1`, for which the GI50 in test [1] was under 0.0196 µM; in [2] it was under 0.0145 µM; in [3] it was 2.55 µM; in test [4], 0.0226 µM; in test [5] it was under 0.01 µM; in test [6], 1.54 µM. The GI50 in [7] was 0.0316 µM; in test [8] it was under 0.01 µM; in test [9], 6.09 µM; in test [10], under 0.0241 µM. The TGI amounted to 5.05 µM in test [1]; 0.0453 µM in [2]; 27.6 µM in [3]; 2.19 µM in test [4]; 5.54 µM in test [5]; 27.3 µM in [6]. Moreover, the TGI in test [7] was 7.28 µM; in test [8], under 0.0171 µM; in [9] it was 27.4 µM; in test [10], over 30.3 µM.

As to `O=P1(NCCCl)OCCC(OO)N1CCCl` (centres undefined), the TGI was over 100 µM in test [1]; over 100 µM in test [2]; over 100 µM in test [3]; over 100 µM in test [4]; 37.5 µM in test [5]; over 100 µM in test [6]. Besides, the TGI is over 100 µM in test [7], over 93.3 µM in [8], 39.8 µM in test [9] and over 100 µM in [10].

For the compound `N=C(N)c1ccc(-c2ccc(-c3ccccc3)o2)o1`, the GI50 in test [1] is 1.54 µM; in test [2], 1.75 µM; in test [3] it was 2.25 µM; in test [4], 1.68 µM; in test [5], 1.7 µM; in test [6], 2.7 µM. Also, the GI50 in test [7] was 4.3 µM; in test [8], 3.03 µM; in [9], 3.32 µM; in test [10], 2.64 µM. The TGI in test [1] was determined as 3.13 µM; in [2], 3.19 µM; in test [3] it was 4.2 µM; in [4], 5.61 µM; in test [5] it was 3.34 µM; in [6], 10.9 µM. Further, the TGI amounted to 16 µM in test [7], 11.7 µM in test [8], 11.4 µM in test [9] and 10.1 µM in test [10].

Take `O=C1/C=C/[C@@H](O)[C@@H]2C[C@@H](O)C[C@H]2/C=C/CCCCO1`: the GI50 in test [1] is 0.304 µM; in test [2], 0.157 µM; in test [3], 0.257 µM; in test [4] it was 0.327 µM; in test [5], 0.223 µM; in test [6], 0.682 µM. For the same compound, the GI50 in test [7] is 1.05 µM; in [8] it was 0.166 µM; in test [9] it was 0.388 µM; in [10], 0.417 µM. For the same compound, the TGI in test [1] was over 38.1 µM; in [2], 0.295 µM; in test [4], 1.88 µM; in [5] it was 0.539 µM; in test [6], over 61.7 µM; in test [7] it was over 100 µM. Moreover, the TGI in [8] is 1.92 µM; in [9] it was 26.2 µM; in [10] it was over 100 µM.

As for `NC1=C(O)/C(=N/NS(=O)(=O)c2ccccc2)C(c2cccc(Cl)c2)O1` (centres undefined), the TGI in test [1] is 33.5 µM; in test [2], over 100 µM; in test [3], 66 µM; in test [4] it was 61.7 µM; in test [5], 49.2 µM; in test [6], over 90.4 µM. In addition, the TGI is over 100 µM in [7], over 100 µM in [8], over 95.8 µM in test [9] and 54.2 µM in test [10].

As for `Clc1ccc2c(NCCCNCc3ccc4c(c3)OCO4)ccnc2c1`, the GI50 was 1.41 µM in test [1]; 1.74 µM in [2]; 2.03 µM in test [3]; 2.89 µM in test [4]; 1.91 µM in test [5]; 5.41 µM in test [6]. Also, the GI50 in test [7] was 14.7 µM; in test [8], 14.4 µM; in [9], 2.19 µM; in [10], 4.08 µM. For the same compound, the TGI came out at 3.1 µM in test [1]; 3.13 µM in test [2]; 4.56 µM in test [3]; 13 µM in [4]; 4.41 µM in test [5]; 18.8 µM in test [6]. Besides, the TGI in test [7] turned out to be 29.3 µM; in [8], 27.6 µM; in [9] it was 5.54 µM; in test [10], 17.2 µM.
